Measured values from US20230339871A1, “COMPOUNDS AND METHODS OF MODULATING 17B-HYDROXYSTEROID DEHYDROGENASE TYPE 13” (METREA BIOSCIENCES, INC., priority 2020, published 2023).

Biological target: T1, recombinant human full-length HSD17B13 protein (Homo sapiens, UniProt Q7Z5P4)
T1 construct: recombinant human full-length HSD17B13 protein; 6xHis (C); made in house; host or cells: HEK293E-253/FH
T1 sequence (Q7Z5P4 20-300): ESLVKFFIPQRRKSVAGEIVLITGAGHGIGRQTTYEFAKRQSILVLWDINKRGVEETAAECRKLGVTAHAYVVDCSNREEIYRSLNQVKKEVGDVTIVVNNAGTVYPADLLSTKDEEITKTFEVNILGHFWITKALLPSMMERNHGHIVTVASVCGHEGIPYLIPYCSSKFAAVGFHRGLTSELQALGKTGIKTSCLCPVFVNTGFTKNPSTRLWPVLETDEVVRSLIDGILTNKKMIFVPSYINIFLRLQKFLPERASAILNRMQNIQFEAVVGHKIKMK
Assay: HSD17B13 96 luminescence inhibition assay (NAD(P)H-Glo)
Assay type: biochemical
Procedure: Compounds of the present disclosure were tested for inhibition of HSD17B13 using the following protocol. Briefly, recombinant human full-length HSD17B13 protein with a 6X-C-terminal His tag was expressed in cell line HEK293E-253/FH and purified using Ni^2+-affinity purification. Enzymatic activity was determined through the production of NADH using the NAD(P)H-Glo Detection System (Promega). The inhibitory activity of test compounds was determined in reactions performed at 30° C. in assay buffer consisting of 25 mM EPPS (8.0), 125 mM NaCl, 0.03% Triton X-100, 0.03% BSA, with […] steroid substrate (1,3,5(10), 7-estratetraen-3, 17b-diol (Steraloids E0580)) added from a 2.5 mM DMSO stock and 500 mM NAD. The final percentage of DMSO was 4.5%. After a one-hour incubation, a 20% volume of luciferase Glo-reagent was added and light units captured on a Victor V Plate Reader (Perkin Elmer).
Concentration-response curves for inhibitors were normalized to control samples containing enzyme only (negative control) and sample without enzyme (positive control). 50% inhibition (IC50) values were determined using a nonlinear least squares fit of the data to a four-parameter equation using Prism 6.0 (GraphPad Software, San Diego).

| IC50 [µM] | SMILES |
| --- | --- |
| ≤ 1 | COc1cc(CN2C(=O)S/C(=C\c3c(F)cc(F)c(O)c3F)C2=O)ccn1 [Compound 22, (Z)-3-((2-methoxypyridin-4-yl)methyl)-5-(2,4,6-trifluoro-3-hydroxybenzylidene) thiazolidine-2,4-dione] |
| 1 to 5 | O=C(c1ccc(-c2ccc(F)c(O)c2F)s1)c1c(F)cc(F)c(O)c1F [Compound 29, (5-(2,4-difluoro-3-hydroxyphenyl)thiophen-2-yl)(2,4,6-trifluoro-3-hydroxyphenyl)methanone] |
| 1 to 5 | O=C(c1ccc(-c2ccc(F)c(O)c2F)s1)c1cc(F)c(F)c(O)c1F [Compound 31, (5-(2,4-difluoro-3-hydroxyphenyl)thiophen-2-yl)(2,4,5-trifluoro-3-hydroxyphenyl) methanone] |
| 1 to 5 | N#Cc1cccc(CN2C(=O)S/C(=C\c3ccc(F)c(O)c3)C2=O)c1 [Compound 19, (Z)-3-((5-(4-fluoro-3-hydroxybenzylidene)-2,4-dioxothiazolidin-3-yl)methyl) benzonitrile] |
| 1 to 5 | O=C1S/C(=C\c2ccc(F)c(O)c2F)C(=O)N1Cc1cccc(O)c1 [Compound 6, (Z)-5(2,4-difluoro-3-hydroxybenzylidene)-3-(3-hydroxybenzyl)thiazolidine-2,4-dione] |
| 1 to 5 | O=C1S/C(=C\c2c(F)cc(F)c(O)c2F)C(=O)N1Cc1cc[nH]c(=O)c1 [Compound 36, (Z)-3-((2-oxo-1,2-dihydropyridin-4-yl)methyl)-5-(2,4,6-trifluoro-3-hydroxybenzylidene)thiazolidine-2,4-dione] |
| 1 to 5 | O=C(c1ccc(-c2ccc(F)c(O)c2F)s1)c1ccc(F)c(O)c1F [Compound 32, (2,4-difluoro-3-hydroxyphenyl)(5-(2,4-difluoro-3-hydroxyphenyl)thiophen-2-yl)methanone] |
| > 5 | O=C1S/C(=C\c2c(F)ccc(O)c2F)C(=O)N1Cc1cccc(O)c1 [Compound 37, (Z)-5-(2,6-difluoro-3-hydroxybenzylidene)-3-(3-hydroxybenzyl)thiazolidine-2,4-dione] |
| 1 to 5 | O=C(NCc1cccc(O)c1)c1ccc2cc(F)c(O)cc2n1 [Compound 24, 6-fluoro-7-hydroxy-N-(3-hydroxybenzyl)quinoline-2-carboxamide] |
| 1 to 5 | O=C1S/C(=C\c2cc(F)c(F)c(O)c2F)C(=O)N1Cc1cccc(O)c1 [Compound 3, (Z)-3(3-hydroxybenzyl)-5-(2,4,5-trifluoro-3-hydroxybenzylidene)thiazolidine-2,4-dione] |
| 1 to 5 | O=C1S/C(=C\c2ccc(F)c(O)c2)C(=O)N1Cc1cc(O)cc(F)c1 [Compound 9, (Z)-5-(4-fluoro-3-hydroxybenzylidene)-3-(3-fluoro-5-hydroxybenzyl)thiazolidine-2,4-dione] |
| 1 to 5 | O=C1S/C(=C\c2ccc(F)c(O)c2)C(=O)N1Cc1cccc(C(F)(F)F)c1 [Compound 17, (Z)-5-(4-fluoro-3-hydroxybenzylidene)-3-(3-(trifluoromethyl)benzyl)thiazolidine-2,4-dione] |
| 1 to 5 | O=C(c1cc(O)c(F)c(F)c1)c1ccc(-c2ccc(F)c(O)c2F)s1 [Compound 30, (5-(2,4-difluoro-3-hydroxyphenyl)thiophen-2-yl)(3,4-difluoro-5-hydroxyphenyl) methanone] |
| 1 to 5 | O=C(c1ccc(F)c(O)c1)c1ccc(-c2ccc(F)c(O)c2F)s1 [Compound 28, (5-(2,4-difluoro-3-hydroxyphenyl)thiophen-2-yl)(4-fluoro-3-hydroxyphenyl) methanone] |
| ≤ 1 | NS(=O)(=O)c1cccc(CN2C(=O)S/C(=C\c3c(F)cc(F)c(O)c3F)C2=O)c1 [Compound 34, (Z)-3-((2,4-dioxo-5-(2,4,6-trifluoro-3-hydroxybenzylidene)thiazolidin-3-yl)methyl)benzenesulfonamide] |
| 1 to 5 | O=C1S/C(=C\c2ccc(F)c(O)c2)C(=O)N1Cc1cccc(O)c1 [Compound 11, (Z)-5-(4-fluoro-3-hydroxybenzylidene)-3-(3-hydroxybenzyl)thiazolidine-2,4-dione] |
| > 5 | CS(=O)(=O)N1CCC(CN2C(=O)S/C(=C\c3c(F)cc(F)c(O)c3F)C2=O)C1 (stereo not shown) [Compound 1, (Z)-3-((1-(methylsulfonyl)pyrrolidin-3-yl)methyl)-5-(2,4,6-trifluoro-3-hydroxybenzylidene)thiazolidine-2,4-dione] |

| IC50 [µM] | SMILES |
| --- | --- |
| 1 to 5 | CS(=O)(=O)c1cccc(CN2C(=O)S/C(=C\c3ccc(F)c(O)c3)C2=O)c1 [Compound 12, (Z)-5-(4-fluoro-3-hydroxybenzylidene)-3-(3-(methylsulfonyl)benzyl)thiazolidine-2,4-dione] |
| 1 to 5 | O=C1S/C(=C\c2ccc(F)c(O)c2)C(=O)N1Cc1cccc(-c2c[nH]nn2)c1 [Compound 15, (Z)-3-(3-(1H-1,2,3-triazol-4-yl)benzyl)-5-(4-fluoro-3-hydroxybenzylidene) thiazolidine-2,4-dione] |
| ≤ 1 | O=C1S/C(=C\c2ccc3nn[nH]c3c2)C(=O)N1Cc1cccc(O)c1 [Compound 38, (Z)-5-((1H-benzo[d][1,2,3]triazol-6-yl)methylene)-3-(3-hydroxybenzyl)thiazolidine-2,4-dione] |
| 1 to 5 | O=C1S/C(=C\c2c(F)cc(F)c(O)c2F)C(=O)N1Cc1cccc(O)c1 [Compound 4, (Z)-3-(3-hydroxybenzyl)-5-(2,4,6-trifluoro-3-hydroxybenzylidene)thiazolidine-2,4-dione] |
| 1 to 5 | O=C1S/C(=C\c2ccc(F)c(O)c2)C(=O)N1Cc1ccc(F)c(F)c1 [Compound 2, (Z)-3-(3,4-difluorobenzyl)-5-(4-fluoro-3-hydroxybenzylidene)thiazolidine-2,4-dione] |
| 1 to 5 | O=C1S/C(=C\c2cc(O)c(F)c(F)c2)C(=O)N1Cc1cccc(O)c1 [Compound 7, (5Z)-5-[(3,4-difluoro-5-hydroxyphenyl)methylidene]-3-[(3-hydroxyphenyl)methyl]-1,3-thiazolidine-2,4-dione] |
| > 5 | O=C1O/C(=C\c2ccc(F)c(O)c2)C(=O)N1Cc1cccc(O)c1 [Compound 10, (Z)-5-(4-fluoro-3-hydroxybenzylidene)-3-(3-hydroxybenzyl)oxazolidine-2,4-dione] |
| ≤ 1 | O=C1S/C(=C\c2c(F)cc(F)c(O)c2F)C(=O)N1Cc1ccc(=O)[nH]c1 [Compound 35, (5Z)-3-[(6-oxo-1,6-dihydropyridin-3-yl)methyl]-5-[(2,4,6-trifluoro-3-hydroxyphenyl)methylidene]-1,3-thiazolidine-2,4-dione] |
| 1 to 5 | COc1ccc(CN2C(=O)S/C(=C\c3c(F)cc(F)c(O)c3F)C2=O)cn1 [Compound 23, (Z)-3-((6-methoxypyridin-3-yl)methyl)-5-(2,4,6-trifluoro-3-hydroxybenzylidene)thiazolidine-2,4-dione] |
| > 5 | CS(=O)(=O)Nc1cccc(CN2C(=O)S/C(=C\c3ccc(F)c(O)c3)C2=O)c1 [Compound 20, N-(3-{[(5Z)-5-[(4-fluoro-3-hydroxyphenyl)methylidene]-2,4-dioxo-1,3-thiazolidin-3-yl]methyl}phenyl)methanesulfonamide] |
| > 5 | O=C(NCc1cccc(-c2nnn[nH]2)c1)c1ccc2cc(F)c(O)cc2n1 [Compound 25, N-(3-(1H-tetrazol-5-yl)benzyl)-6-fluoro-7-hydroxyquinoline-2-carboxamide] |
| > 5 | O=C1S/C(=C\c2ccc(F)c(O)c2)C(=O)N1CC1CCOCC1 [Compound 14, (Z)-5-(4-fluoro-3-hydroxybenzylidene)-3-((tetrahydro-2H-pyran-4-yl)methyl)thiazolidine-2,4-dione] |
| > 5 | N#Cc1cccc(CNC(=O)c2ccc3cc(F)c(O)cc3n2)c1 [Compound 27, N-(3-cyanobenzyl)-6-fluoro-7-hydroxyquinoline-2-carboxamide] |
| 1 to 5 | COc1cccc(CNC(=O)c2ccc3cc(F)c(O)c(F)c3n2)c1 [Compound 39, 6,8-difluoro-7-hydroxy-N-[(3-methoxyphenyl)methyl]quinoline-2-carboxamide] |
| 1 to 5 | O=C1O/C(=C\c2ccc(F)c(O)c2)C(=O)N1CC1CCOCC1 [Compound 13, (Z)-5-(4-fluoro-3-hydroxybenzylidene)-3-((tetrahydro-2H-pyran-4-yl)methyl) oxazolidine-2,4-dione] |
| 1 to 5 | NC(=O)c1cccc(CN2C(=O)S/C(=C\c3ccc(F)c(O)c3)C2=O)c1 [Compound 18, (Z)-3-((5-(4-fluoro-3-hydroxybenzylidene)-2,4-dioxothiazolidin-3-yl)methyl) benzamide] |
| > 5 | O=C1S/C(=C\c2ccc(F)c(O)c2)C(=O)N1Cc1cccc(OC(F)(F)F)c1 [Compound 16, (Z)-5-(4-fluoro-3-hydroxybenzylidene)-3-(3-(trifluoromethoxy)benzyl) thiazolidine-2,4-dione] |
